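Cultured in 96-well plates, cells were exposed to test compound for 48 hours across five concentrations. Here, GI50 denotes the concentration required for 50% inhibition of growth. TGI marks complete inhibition of growth.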
Columns and labels:
Assay in all cases: inhibition of tumour cell growth, NCI panel, 48 h
UO-31 renal = test system: UO-31 renal
RXF 393 renal = test system: RXF 393 renal
OVCAR-3 ovarian = test system: OVCAR-3 ovarian
TK-10 renal = test system: TK-10 renal
786-0 renal = test system: 786-0 renal
A549 NSCLC = test system: A549 NSCLC
SR leukemia = test system: SR leukemia
RPMI-8226 leukemia = test system: RPMI-8226 leukemia
COLO 205 colon = test system: COLO 205 colon
MOLT-4 leukemia = test system: MOLT-4 leukemia

| SMILES | GI50 (UO-31 renal) | TGI (UO-31 renal) | GI50 (RXF 393 renal) | TGI (RXF 393 renal) | GI50 (OVCAR-3 ovarian) | TGI (OVCAR-3 ovarian) | GI50 (TK-10 renal) | TGI (TK-10 renal) | GI50 (786-0 renal) | TGI (786-0 renal) | GI50 (A549 NSCLC) | TGI (A549 NSCLC) | GI50 (SR leukemia) | TGI (SR leukemia) | GI50 (RPMI-8226 leukemia) | TGI (RPMI-8226 leukemia) | GI50 (COLO 205 colon) | TGI (COLO 205 colon) | GI50 (MOLT-4 leukemia) | TGI (MOLT-4 leukemia) |
| --- | --- | --- | --- | --- | --- | --- | --- | --- | --- | --- | --- | --- | --- | --- | --- | --- | --- | --- | --- | --- |
| COc1cc(C)c(N(C)C(=O)CN(C)C)cc1Nc1nc(Nc2cccc(F)c2C(N)=O)c2cc[nH]c2n1 | 9260 nM | > 25000 nM | 20500 nM | > 25000 nM | > 25000 nM | > 25000 nM | > 22000 nM | > 25000 nM | > 25000 nM | > 25000 nM | > 25000 nM | > 25000 nM | 7850 nM | > 23300 nM | > 22000 nM | > 25000 nM | 5630 nM | > 25000 nM | > 21900 nM | > 25000 nM |
| CCCCCn1ncc(-c2c(O)c(O)cc3c(O)c(-c4c(C)cc5c(-c6cnn(CCCCC)n6)c(O)c(O)cc5c4O)c(C)cc23)n1 | 180 nM | 1840 nM | 112 nM | 6450 nM | 91.9 nM | 4620 nM | 126 nM | 5050 nM | 171 nM | 2610 nM | 117 nM | 4470 nM | 201 nM | 7270 nM | 109 nM | 4900 nM | 595 nM | 3220 nM | 89.8 nM | 8280 nM |
| CN([N-]C(=O)CC(=O)[N-]N(C)C(=S)c1ccccc1)C(=S)c1ccccc1.[Cu+2] | 66.6 nM | 231 nM | 26.6 nM | 72.9 nM | < 10 nM | 30 nM | 46.1 nM | 174 nM | 50.3 nM | 116 nM | 22.3 nM | 119 nM | < 10 nM |  | 28.4 nM | 224 nM | < 10 nM | 25.6 nM | < 10.8 nM | 220 nM |
| COc1cc2c(c(OC)c1OC)C(=O)c1c-2n(CCCN)c(=O)c2cc([N+](=O)[O-])ccc12 | 1890 nM | 3570 nM |  |  | 1060 nM | 2400 nM | 616 nM | 1300 nM | 481 nM | 1040 nM |  |  | 2410 nM | 5440 nM | 1210 nM | 3320 nM | 1220 nM | 6300 nM | 8080 nM | 19100 nM |
| COc1ccc2c(CCNS(=O)(=O)c3ccccc3)c(C(C)=O)[nH]c2c1[N+](=O)[O-] |  | > 100000 nM |  |  |  | > 100000 nM |  |  |  | > 100000 nM |  | > 100000 nM |  | > 100000 nM |  | > 100000 nM |  | > 100000 nM |  | > 100000 nM |
| O=C(CN1C(=O)c2ccccc2C1=O)OC1C=CCCC1 (stereo not given) |  | > 100000 nM |  | > 100000 nM |  |  |  | > 100000 nM |  | > 100000 nM |  | > 100000 nM |  | > 100000 nM |  | > 100000 nM |  | > 100000 nM |  | > 100000 nM |
| CN1CCN(c2ccc3nc(-c4ccc5nc(-c6ccc(C(F)(F)F)cc6)[nH]c5c4)[nH]c3c2)CC1 | 12500 nM | 28000 nM | 1530 nM | 3120 nM | 1580 nM | 3100 nM |  |  | 3300 nM | 12700 nM | 1940 nM | 3910 nM | 1700 nM | 5110 nM | 2060 nM | 4510 nM | 1370 nM | 2930 nM | 2330 nM | 4960 nM |
